The source made the active and inactive calls.
Experiments:
[1] = NIH-3T3 fibroblast cytotoxicity, dose response, cytotoxicity control, cell-based, fluorescence, Alamar Blue, secondary assay (AID 2327); type: functional;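 note: NIH-3T3 mouse fibroblasts cultured with fluconazole at 8 µg/mL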
[2] = inhibitors of firefly luciferase expression or activity, dose response, H4 neuroglioma cells, luminescence (AID 1990); type: functional, cell-based
[3] = tested on: Streptococcus sp. 'group A'; assay: growth inhibition of control SK(-) GAS strain, dose response, counter-screen for streptokinase expression inhibitor project, luminescence, kanamycin, BacTiterGlo, confirmation (AID 1900); type: functional, organism-based
[4] = Luminescence Cell-Based Dose Response HTS to Identify Inhibitors of 5'UTR Stem-Loop Driven Prion Protein mRNA Translation in H4 Neuroglioblastoma Cells. [Related pubchem assays: 1827 (Project Summary), 1813 (Primary HTS)]; type: functional
[5] = inhibitors of SNCA 5'UTR-driven reporter translation, confirmation, H4 neuroglioma cells, luminescence (AID 1988); type: functional, cell-based
[6] = C. albicans growth with fluconazole, confirmation, fluorescence, retest (AID 2467); type: functional, cell-based
[7] = microbe, parasite or virus in culture; type: functional; conditions: Mycobacterium tuberculosis
[8] = target: T1, Serine/threonine-protein phosphatase (Candida dubliniensis (strain CD36 / CBS 7987 / NCPF 3949 / NRRLY-17841) (Yeast), UniProt B9W6M3); assay: calcineurin pathway inhibitors in yeast reporter, dose response, S. cerevisiae, CDRE-lacZ, luminescence, secondary (AID 2388); type: functional, cell-based;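 note: yeast reporter cells carrying a calcineurin-responsive lacZ construct stimulated with calcium chloride; luminescent beta-galactosidase reporter signal in whole cells rather than isolated phosphatase activity; potency for inhibition where a drop in reporter signal means calcineurin blockade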
T1 sequence (B9W6M3 whole entry): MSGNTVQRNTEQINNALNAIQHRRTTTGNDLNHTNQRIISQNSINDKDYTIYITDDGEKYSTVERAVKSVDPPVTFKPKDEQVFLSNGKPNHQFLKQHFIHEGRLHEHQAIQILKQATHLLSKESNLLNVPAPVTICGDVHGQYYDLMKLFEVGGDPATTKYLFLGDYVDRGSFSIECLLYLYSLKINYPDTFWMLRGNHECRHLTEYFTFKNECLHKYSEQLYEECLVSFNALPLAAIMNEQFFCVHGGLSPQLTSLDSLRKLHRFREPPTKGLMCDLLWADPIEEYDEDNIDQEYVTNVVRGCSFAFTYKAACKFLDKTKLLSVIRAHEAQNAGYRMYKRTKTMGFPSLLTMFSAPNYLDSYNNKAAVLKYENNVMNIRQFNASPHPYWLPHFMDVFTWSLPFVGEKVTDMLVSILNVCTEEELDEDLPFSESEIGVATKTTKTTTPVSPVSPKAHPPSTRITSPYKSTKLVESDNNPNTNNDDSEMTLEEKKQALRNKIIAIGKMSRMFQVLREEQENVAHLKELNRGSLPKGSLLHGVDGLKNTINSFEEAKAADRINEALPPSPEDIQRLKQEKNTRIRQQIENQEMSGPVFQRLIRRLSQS

Streptococcus = assay: Group A Streptococcus viability loss, dose response, counter-screen for streptokinase expression inhibitor project, luminescence, BacTiterGlo (AID 1915); type: functional, organism-based;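 note: potency for reduction of bacterial viability or growth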
[9] = target: T1, Serine/threonine-protein phosphatase; assay: Fluorescence Cell-Based Secondary Assay to Identify Inhibitors of Calcineurin. [Related pubchem assays (depositor defined):AID1979, AID2007]; type: functional
INS1 = assay: beta cell apoptosis inhibitors, cytokine rescue, dose response, luminescence, retest (AID 449756); type: functional, cell-based; conditions: Rattus norvegicus;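 note: cell death triggered by IL-1 beta plus TNF-alpha plus IFN-gamma mixture; protective hits raise ATP signal compared with cytokine alone wells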
[10] = target: ATP-dependent molecular chaperone HSP82 (Candida albicans (strain WO-1) (Yeast), UniProt C4YTQ8); assay: loss of DOC-induced GRE-beta-galactosidase reporter signal, dose response, Hsp90 inhibitor project, S. cerevisiae, luminescence (AID 2400); type: functional, cell-based;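 note: beta-galactosidase luminescence from glucocorticoid response element reporter as proxy for Hsp90 function; inhibitor potency where signal loss means Hsp90 inhibition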
[11] = growth suppression of PTEN-null colon cells, dose response, cell-based, HCT116 PTEN knockout (AID 1047); type: functional;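 note: HCT116 colon tumor cells with PTEN knocked out; cells exposed to compound for 60 hours before readout; potency for loss of cell viability measured by luminescence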
[12] = growth suppression of beta-catenin-knockout colon cells, dose response, cell-based, HCT116, human colon tumor (AID 1045); type: functional;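 note: HCT116 colon tumor cells with beta catenin knocked out; cells exposed to compound for 60 hours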
Exodeoxyribonuclease V = Exodeoxyribonuclease V (Escherichia coli (strain K12), UniProt P04993+P07648+P08394); assay: E. coli RecBCD inhibitors, dose response, counter-screen for AddAB inhibitor project, absorbance, V66 E. coli, mutant T4 phage (AID 492957); type: functional, cell-based, Escherichia coli str. K-12 substr. MG1655
Chain of Exodeoxyribonuclease V (P04993 whole entry): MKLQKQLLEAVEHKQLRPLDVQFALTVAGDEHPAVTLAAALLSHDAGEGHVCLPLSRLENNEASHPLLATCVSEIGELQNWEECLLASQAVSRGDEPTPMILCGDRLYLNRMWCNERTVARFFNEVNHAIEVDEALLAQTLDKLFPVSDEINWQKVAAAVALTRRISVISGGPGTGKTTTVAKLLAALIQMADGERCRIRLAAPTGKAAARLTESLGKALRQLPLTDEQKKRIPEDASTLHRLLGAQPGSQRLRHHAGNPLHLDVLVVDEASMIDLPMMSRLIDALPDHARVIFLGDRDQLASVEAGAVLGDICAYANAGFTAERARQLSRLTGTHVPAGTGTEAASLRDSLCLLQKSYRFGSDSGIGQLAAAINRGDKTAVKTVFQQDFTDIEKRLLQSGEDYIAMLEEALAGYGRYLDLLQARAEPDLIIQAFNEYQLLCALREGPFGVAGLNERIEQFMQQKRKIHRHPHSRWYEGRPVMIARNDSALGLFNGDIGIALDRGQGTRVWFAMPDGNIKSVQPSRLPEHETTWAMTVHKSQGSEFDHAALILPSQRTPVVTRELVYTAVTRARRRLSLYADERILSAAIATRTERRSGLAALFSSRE
Chain of Exodeoxyribonuclease V (P07648 whole entry): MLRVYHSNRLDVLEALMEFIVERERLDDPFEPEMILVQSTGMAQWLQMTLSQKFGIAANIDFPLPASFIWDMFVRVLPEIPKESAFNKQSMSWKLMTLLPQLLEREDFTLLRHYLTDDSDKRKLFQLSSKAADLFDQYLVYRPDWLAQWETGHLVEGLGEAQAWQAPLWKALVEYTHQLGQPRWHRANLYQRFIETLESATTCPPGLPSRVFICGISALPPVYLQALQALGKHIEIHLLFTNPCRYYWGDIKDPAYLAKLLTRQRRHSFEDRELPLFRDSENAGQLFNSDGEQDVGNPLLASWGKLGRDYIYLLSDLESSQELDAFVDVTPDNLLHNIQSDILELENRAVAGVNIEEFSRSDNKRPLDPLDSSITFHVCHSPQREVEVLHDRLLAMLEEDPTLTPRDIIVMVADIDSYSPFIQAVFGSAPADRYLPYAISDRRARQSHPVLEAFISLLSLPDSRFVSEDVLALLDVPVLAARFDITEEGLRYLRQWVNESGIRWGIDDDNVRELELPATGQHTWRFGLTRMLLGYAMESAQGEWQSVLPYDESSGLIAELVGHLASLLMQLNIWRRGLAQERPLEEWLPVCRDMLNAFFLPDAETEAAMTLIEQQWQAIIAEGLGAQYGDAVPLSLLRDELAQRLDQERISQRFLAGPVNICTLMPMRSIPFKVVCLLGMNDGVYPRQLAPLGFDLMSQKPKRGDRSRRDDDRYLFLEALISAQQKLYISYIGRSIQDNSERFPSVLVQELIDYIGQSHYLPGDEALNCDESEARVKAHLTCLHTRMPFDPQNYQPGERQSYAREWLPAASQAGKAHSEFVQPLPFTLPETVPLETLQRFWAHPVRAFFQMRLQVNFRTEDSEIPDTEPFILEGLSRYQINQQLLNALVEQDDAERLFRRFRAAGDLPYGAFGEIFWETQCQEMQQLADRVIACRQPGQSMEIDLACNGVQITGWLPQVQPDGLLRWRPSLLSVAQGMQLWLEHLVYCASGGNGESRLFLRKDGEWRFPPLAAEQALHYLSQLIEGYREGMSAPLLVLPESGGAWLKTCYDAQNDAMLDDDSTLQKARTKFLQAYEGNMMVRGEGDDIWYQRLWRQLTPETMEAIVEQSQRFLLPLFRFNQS
Chain of Exodeoxyribonuclease V (P08394 whole entry): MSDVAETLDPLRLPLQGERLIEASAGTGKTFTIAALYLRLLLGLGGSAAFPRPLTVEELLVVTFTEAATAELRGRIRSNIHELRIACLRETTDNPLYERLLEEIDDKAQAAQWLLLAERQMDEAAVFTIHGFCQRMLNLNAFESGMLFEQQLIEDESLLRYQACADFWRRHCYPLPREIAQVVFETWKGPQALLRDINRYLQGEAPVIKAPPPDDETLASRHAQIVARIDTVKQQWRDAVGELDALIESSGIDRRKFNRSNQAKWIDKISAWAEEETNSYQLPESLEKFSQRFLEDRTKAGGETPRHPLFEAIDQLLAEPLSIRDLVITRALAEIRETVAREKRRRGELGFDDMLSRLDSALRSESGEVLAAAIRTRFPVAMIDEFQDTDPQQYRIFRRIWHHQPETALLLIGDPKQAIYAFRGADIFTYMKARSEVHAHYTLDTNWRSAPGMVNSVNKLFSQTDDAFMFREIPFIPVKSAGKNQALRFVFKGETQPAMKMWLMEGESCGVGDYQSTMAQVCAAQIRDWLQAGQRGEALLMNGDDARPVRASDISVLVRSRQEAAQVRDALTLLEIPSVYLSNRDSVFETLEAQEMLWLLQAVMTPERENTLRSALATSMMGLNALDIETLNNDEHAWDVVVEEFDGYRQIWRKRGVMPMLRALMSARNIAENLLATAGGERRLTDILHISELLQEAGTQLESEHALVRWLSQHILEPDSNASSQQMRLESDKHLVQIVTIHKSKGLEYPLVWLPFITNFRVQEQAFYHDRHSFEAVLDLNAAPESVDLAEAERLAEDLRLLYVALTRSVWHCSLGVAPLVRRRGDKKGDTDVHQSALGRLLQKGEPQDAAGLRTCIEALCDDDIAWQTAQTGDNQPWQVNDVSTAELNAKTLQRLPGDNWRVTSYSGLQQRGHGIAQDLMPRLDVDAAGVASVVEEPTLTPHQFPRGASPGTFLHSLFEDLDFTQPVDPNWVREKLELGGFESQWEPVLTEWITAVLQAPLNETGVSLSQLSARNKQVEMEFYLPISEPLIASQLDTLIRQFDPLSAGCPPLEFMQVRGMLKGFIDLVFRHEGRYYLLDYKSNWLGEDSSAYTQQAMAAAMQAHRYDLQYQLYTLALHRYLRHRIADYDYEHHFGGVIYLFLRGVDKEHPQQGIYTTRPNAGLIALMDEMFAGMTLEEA

[13] = Luminescence Cell-Based Dose Retest to Confirm Inhibitors of Cancer Stem Cells. [Related pubchem assays (depositor defined):AID2717, AID2721]; type: functional; conditions: Homo sapiens
Beta-galactosidase = Beta-galactosidase (Escherichia coli, UniProt Q8VNN2); assay: beta-galactosidase enzyme inhibitors and activators, dose response, artefact control for CCR6 antagonist project, biochemical, E. coli enzyme, set 3 (AID 504712); type: functional
Chain of Beta-galactosidase (Q8VNN2 whole entry): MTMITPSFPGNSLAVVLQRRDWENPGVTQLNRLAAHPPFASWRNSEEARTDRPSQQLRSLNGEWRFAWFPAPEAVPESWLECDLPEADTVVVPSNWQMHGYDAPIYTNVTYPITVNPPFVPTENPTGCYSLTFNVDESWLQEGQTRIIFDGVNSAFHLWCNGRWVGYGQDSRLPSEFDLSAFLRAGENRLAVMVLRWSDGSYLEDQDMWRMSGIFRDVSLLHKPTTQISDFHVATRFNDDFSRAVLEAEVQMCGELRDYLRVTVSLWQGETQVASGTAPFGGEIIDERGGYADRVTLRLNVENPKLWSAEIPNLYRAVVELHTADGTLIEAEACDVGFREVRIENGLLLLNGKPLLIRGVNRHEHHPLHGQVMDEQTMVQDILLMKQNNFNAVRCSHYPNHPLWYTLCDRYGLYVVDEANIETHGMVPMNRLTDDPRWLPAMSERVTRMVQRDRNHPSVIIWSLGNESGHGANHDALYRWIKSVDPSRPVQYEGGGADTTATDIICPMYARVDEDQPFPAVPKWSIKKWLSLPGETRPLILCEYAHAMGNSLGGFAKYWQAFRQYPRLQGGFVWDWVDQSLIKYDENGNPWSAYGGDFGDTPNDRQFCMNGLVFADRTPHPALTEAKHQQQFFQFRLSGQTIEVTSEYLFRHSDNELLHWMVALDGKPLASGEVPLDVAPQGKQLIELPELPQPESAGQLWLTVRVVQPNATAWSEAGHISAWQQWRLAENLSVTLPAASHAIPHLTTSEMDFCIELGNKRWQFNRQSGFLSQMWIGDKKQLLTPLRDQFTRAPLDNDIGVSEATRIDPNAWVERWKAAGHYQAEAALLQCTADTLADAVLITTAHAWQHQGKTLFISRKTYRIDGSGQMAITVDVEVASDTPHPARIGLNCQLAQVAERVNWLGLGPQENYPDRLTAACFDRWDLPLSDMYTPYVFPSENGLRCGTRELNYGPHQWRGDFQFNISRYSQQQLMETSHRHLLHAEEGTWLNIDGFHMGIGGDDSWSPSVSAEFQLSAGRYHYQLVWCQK

[14] = Counterscreen for AddAB inhibitors: absorbance-based bacterial cell-based high throughput dose response assay for inhibitors of bacterial viability. [Related pubchem assays (depositor defined):AID435030, AID449728, AID449731, AID488942, AID488955, AID488956]; type: functional
[15] = Shn3 3'UTR reporter inhibitors, dose response, cell-based, Clone20 osteoblasts, firefly luciferase, cherry-picked (AID 624132); type: functional;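 note: firefly luciferase luminescence from reporter carrying the Shn3 3'UTR in osteoblasts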
[16] = HepG2 cell cytotoxicity, dose response, cytotoxicity control for Shn3 inhibitor project, CellTiter-Glo, cherry-picked (AID 624134); type: functional, cell-based
[17] = control 3'UTR Renilla luciferase suppression, dose response, counter-screen for Shn3 inhibitor project, cell-based, Clone20-Shn3RL, cherry-picked (AID 624133); type: functional
Cytochrome P450 2C19 = Cytochrome P450 2C19 (Homo sapiens, UniProt P33261); assay: Cytochrome panel assay with activity outcomes. Panel member name: p450-cyp2c19 Compounds with AC50 equal or less than 10 uM are considered active; type: functional; conditions: read-out: AC50
Chain of Cytochrome P450 2C19 (P33261 whole entry): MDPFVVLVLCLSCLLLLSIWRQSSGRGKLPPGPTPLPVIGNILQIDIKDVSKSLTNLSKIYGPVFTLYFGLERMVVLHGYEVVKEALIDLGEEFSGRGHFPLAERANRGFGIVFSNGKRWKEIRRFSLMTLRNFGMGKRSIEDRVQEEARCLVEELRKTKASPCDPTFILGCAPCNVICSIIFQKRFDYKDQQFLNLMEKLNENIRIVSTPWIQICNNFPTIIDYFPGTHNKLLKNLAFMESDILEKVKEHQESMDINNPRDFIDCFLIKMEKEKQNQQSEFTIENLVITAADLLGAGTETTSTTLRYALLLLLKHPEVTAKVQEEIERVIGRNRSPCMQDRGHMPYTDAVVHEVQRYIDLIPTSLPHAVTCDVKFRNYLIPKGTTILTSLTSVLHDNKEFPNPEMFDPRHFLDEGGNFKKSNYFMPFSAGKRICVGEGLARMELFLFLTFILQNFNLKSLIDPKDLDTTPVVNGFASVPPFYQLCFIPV

Cytochrome P450 3A4 = Cytochrome P450 3A4 (Homo sapiens, UniProt P08684);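 note: CYP3A4 tested as one member of a cytochrome P450 panel screen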
Chain of Cytochrome P450 3A4 (P08684 whole entry): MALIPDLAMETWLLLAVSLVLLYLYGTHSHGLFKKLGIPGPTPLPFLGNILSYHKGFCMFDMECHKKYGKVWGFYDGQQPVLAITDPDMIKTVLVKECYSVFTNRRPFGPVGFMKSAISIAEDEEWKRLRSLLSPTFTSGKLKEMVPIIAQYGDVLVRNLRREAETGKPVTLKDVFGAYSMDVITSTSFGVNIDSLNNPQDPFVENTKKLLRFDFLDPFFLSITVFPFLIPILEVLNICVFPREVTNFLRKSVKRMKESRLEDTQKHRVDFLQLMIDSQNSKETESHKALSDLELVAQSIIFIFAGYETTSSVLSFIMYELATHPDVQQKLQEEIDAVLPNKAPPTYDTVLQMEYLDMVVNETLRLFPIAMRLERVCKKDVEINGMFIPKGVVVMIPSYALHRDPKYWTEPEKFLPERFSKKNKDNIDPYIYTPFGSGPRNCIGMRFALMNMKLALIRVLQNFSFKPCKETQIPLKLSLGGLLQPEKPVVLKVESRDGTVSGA

## CC(C)COCc1ccc(O)c2ncccc12
[1]
  EC50: 31.8 µM (active)
[2]
  EC50: 12.1 µM (active)
[3]
  EC50: 1.67 µM (active)
[4]
  EC50: 10.9 µM (active)
[5]
  EC50: 9.38 µM (active)
[6]
  EC50: 0.294 µM (active)
[7]
  CC50: 10.2 µM (active)
[8]
  EC50: > 180 µM (inactive)
Streptococcus
  EC50: 5.43 µM (active)
[9]
  EC50: > 285 µM (inactive)
INS1
  AC50: 2.35 µM (active)
[10]
  EC50: > 150 µM (inactive)

## O=C(Nc1ccc([N+](=O)[O-])cc1)Nc1ccc(OC(F)F)c(Cl)c1
[7]
  CC50: 2.83 µM (active)
[11]
  EC50: 1.37 µM (active)
[12]
  EC50: 1.9 µM (active)
Exodeoxyribonuclease V
  IC50: > 119 µM (inactive)
[13]
  AC50: 1.22 µM (active)
Beta-galactosidase
  IC50: > 66.6 µM (inactive)
[14]
  IC50: > 119 µM (inactive)
[15]
  AC50: 3.59 µM (active)
[16]
  AC50: 6.24 µM (active)
[17]
  AC50: 4.77 µM (active)

## O=C(c1ccco1)N1CCC2(CC1)CCN(c1ccccn1)CC2
Cytochrome P450 2C19
  AC50: 31.6 µM (inconclusive)
Cytochrome P450 3A4
  AC50: inconclusive

From ChEMBL document CHEMBL1201862, “PubChem BioAssay data set” (2004)
